What was measured:
Settings in all cases: Compound concentration 1000.0 nM
[1] = target: T1, Bone morphogenetic protein receptor type-2 (Homo sapiens) (UniProt Q13873)
T1 sequence (whole entry): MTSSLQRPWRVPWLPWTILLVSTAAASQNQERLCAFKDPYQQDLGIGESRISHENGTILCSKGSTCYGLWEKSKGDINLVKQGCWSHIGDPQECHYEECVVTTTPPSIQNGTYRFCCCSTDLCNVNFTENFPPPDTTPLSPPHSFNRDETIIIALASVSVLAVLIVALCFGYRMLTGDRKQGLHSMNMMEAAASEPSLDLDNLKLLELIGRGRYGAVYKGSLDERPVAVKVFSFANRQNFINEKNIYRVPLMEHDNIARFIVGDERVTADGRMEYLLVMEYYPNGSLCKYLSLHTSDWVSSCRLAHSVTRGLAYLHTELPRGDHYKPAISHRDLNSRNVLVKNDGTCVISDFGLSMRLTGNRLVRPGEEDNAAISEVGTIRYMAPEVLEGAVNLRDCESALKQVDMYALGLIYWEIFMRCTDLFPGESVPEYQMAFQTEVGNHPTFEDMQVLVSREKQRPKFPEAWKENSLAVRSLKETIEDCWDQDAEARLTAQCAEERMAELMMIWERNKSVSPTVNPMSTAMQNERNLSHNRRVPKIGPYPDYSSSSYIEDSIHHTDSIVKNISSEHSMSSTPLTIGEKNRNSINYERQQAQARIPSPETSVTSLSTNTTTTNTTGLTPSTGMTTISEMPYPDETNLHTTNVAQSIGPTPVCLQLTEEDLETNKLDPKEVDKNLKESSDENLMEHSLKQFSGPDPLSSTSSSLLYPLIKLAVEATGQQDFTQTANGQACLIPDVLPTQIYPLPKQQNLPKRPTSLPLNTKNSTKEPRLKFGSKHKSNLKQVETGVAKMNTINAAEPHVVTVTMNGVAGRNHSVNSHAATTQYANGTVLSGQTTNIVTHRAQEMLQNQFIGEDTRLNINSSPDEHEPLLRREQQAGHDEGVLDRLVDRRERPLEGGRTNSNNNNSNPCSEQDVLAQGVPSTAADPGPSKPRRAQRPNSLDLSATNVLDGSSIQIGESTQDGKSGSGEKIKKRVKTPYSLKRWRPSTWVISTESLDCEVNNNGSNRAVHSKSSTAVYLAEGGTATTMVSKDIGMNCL

[2] = target: T2, Serine/threonine-protein kinase BRSK2 (Homo sapiens) (UniProt Q8IWQ3)
T2 sequence (whole entry): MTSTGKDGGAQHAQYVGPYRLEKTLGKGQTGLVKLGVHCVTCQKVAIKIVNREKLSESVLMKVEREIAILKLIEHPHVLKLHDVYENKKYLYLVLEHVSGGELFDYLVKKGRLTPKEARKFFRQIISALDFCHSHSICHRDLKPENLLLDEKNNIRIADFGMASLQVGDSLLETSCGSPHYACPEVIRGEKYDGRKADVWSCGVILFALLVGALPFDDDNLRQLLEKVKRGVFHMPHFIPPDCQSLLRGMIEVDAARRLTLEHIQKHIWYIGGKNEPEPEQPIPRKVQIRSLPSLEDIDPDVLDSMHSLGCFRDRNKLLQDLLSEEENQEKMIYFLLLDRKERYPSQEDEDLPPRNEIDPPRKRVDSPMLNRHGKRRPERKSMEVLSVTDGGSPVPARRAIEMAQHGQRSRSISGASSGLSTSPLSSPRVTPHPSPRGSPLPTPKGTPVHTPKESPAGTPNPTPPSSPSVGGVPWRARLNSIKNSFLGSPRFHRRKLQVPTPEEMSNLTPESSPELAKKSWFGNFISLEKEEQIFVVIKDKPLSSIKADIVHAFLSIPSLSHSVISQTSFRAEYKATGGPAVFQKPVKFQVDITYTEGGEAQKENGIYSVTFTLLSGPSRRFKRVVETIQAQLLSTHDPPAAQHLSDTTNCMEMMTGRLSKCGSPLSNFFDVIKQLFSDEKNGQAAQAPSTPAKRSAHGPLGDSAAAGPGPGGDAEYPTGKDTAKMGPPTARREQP

[3] = target: Serine/threonine-protein kinase WNK3 (Homo sapiens) (UniProt Q9BYP7)
Sequence of Serine/threonine-protein kinase WNK3 (Homo sapiens) (Q9BYP7 whole entry, the tested form may be a part): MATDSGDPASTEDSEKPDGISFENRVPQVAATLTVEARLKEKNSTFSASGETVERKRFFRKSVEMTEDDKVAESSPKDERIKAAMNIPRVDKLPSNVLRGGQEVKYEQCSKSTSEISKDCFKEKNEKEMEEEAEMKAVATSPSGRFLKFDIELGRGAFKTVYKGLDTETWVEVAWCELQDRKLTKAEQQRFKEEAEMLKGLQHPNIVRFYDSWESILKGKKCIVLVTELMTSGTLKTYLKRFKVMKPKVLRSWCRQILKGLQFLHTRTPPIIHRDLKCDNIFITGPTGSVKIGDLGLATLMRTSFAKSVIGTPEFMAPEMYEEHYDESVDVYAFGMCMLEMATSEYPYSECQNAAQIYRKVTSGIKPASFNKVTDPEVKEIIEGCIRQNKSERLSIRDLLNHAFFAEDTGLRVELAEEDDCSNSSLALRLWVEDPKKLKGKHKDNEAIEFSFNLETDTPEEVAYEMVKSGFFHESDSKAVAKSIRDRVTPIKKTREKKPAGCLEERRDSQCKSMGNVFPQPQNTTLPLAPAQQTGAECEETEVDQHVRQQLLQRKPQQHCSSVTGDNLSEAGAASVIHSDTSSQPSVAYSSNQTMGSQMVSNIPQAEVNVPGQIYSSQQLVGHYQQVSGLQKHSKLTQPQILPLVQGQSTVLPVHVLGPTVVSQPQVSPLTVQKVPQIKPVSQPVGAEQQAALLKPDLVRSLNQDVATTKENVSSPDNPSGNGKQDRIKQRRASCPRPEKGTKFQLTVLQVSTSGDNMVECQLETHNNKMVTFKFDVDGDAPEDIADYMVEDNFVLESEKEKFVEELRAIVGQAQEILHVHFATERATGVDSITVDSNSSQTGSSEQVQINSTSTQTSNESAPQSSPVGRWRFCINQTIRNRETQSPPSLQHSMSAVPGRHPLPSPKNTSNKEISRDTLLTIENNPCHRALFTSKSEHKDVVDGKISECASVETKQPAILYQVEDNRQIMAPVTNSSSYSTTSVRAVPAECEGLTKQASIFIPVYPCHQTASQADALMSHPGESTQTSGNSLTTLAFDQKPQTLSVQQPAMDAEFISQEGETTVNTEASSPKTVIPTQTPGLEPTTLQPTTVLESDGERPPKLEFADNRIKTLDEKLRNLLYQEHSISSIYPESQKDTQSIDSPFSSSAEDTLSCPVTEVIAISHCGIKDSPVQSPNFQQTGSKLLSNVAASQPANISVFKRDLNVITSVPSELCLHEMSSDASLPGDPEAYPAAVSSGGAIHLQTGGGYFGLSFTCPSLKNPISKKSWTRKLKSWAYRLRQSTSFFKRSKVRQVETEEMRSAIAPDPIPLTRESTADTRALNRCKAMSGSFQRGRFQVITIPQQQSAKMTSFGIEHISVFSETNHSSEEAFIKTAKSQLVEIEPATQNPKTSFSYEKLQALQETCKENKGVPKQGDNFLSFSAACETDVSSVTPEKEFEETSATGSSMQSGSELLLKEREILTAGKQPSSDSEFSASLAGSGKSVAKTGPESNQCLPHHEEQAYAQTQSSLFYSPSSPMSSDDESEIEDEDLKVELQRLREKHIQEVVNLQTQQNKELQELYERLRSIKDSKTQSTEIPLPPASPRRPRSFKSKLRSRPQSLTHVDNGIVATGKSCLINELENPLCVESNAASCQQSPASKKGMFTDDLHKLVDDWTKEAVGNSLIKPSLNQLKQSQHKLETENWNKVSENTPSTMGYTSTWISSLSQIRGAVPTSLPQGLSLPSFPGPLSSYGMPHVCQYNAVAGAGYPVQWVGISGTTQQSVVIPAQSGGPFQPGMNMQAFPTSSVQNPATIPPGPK

[4] = target: Phosphatidylinositol 4-phosphate 3-kinase C2 domain-containing subunit beta (Homo sapiens) (UniProt O00750)
Sequence of Phosphatidylinositol 4-phosphate 3-kinase C2 domain-containing subunit beta (Homo sapiens) (O00750 whole entry, the tested form may be a part): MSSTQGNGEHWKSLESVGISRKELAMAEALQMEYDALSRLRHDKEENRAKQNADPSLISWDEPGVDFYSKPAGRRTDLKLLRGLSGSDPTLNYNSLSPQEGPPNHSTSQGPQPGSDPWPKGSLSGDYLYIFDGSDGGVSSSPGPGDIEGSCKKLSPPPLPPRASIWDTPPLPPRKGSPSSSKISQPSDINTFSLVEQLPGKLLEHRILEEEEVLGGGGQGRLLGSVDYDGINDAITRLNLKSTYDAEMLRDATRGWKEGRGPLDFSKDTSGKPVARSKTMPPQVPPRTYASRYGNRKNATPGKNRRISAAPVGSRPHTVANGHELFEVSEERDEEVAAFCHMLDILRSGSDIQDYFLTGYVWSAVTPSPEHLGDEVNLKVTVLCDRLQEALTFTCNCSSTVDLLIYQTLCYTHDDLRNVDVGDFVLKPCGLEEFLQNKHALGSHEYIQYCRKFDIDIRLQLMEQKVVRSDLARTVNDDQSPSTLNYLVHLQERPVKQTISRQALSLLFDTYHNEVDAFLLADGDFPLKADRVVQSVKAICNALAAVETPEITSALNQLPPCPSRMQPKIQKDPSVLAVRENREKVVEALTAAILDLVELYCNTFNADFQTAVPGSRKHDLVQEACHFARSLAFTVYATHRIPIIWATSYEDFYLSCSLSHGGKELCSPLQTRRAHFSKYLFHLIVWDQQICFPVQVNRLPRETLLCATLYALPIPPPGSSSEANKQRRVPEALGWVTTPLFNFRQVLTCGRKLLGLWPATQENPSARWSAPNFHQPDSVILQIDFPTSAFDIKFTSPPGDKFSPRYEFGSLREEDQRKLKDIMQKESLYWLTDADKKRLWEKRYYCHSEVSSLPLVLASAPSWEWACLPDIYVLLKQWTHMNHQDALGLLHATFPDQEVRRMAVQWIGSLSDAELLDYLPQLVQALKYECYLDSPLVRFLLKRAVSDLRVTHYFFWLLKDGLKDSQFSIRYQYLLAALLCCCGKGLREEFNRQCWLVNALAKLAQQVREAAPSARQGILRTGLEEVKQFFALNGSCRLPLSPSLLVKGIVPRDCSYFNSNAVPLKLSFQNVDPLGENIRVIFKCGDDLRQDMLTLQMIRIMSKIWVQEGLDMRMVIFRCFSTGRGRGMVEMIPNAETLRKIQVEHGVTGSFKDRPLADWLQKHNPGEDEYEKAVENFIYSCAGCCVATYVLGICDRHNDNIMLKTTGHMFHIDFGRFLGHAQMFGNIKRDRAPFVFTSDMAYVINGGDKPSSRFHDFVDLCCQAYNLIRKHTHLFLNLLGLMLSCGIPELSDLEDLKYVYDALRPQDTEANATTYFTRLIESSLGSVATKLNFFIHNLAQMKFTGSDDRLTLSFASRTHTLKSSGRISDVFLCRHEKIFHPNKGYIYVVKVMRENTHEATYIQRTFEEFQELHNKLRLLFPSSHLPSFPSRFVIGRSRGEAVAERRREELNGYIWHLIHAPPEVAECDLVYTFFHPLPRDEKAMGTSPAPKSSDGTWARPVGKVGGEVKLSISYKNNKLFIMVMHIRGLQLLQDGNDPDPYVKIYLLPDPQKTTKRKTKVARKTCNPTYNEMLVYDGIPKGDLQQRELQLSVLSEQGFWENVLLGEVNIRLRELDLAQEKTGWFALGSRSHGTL

[5] = target: T3, Mitogen-activated protein kinase kinase kinase kinase 3 (Homo sapiens) (UniProt Q8IVH8)
T3 sequence (whole entry): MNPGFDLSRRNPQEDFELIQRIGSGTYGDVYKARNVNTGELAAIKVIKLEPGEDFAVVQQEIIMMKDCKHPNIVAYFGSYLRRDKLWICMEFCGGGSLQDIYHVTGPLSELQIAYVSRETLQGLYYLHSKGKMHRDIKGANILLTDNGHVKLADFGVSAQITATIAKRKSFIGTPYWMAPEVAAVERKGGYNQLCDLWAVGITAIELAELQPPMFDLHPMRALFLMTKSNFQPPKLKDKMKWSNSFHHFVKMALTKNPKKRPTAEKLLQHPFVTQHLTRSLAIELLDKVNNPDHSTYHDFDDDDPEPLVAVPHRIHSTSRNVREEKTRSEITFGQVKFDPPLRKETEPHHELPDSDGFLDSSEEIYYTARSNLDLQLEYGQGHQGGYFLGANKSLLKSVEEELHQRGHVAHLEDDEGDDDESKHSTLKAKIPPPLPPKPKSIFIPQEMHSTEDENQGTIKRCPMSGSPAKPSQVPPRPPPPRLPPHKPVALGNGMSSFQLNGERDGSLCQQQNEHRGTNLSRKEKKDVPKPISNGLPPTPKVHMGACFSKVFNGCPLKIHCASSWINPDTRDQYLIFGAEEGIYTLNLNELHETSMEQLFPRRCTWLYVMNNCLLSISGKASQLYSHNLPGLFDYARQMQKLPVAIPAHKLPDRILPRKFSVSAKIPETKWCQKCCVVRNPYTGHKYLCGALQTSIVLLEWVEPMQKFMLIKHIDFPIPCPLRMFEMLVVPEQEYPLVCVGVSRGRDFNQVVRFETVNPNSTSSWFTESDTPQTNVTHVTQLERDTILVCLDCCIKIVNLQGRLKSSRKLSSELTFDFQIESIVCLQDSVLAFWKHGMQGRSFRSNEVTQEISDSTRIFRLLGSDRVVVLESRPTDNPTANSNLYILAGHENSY

Measured: residual activity

Cc1nc(C2CCN(C(=O)c3ccc(OC(F)(F)F)cc3N)CC2)c2ncc(N3CCN(C)CC3)cc2n1 [BAY-693]
inactive: [1] 100% | [2] 100% | [3] 94% | [4] 86% | [5] 100%

CN1CCN(c2cnc3c(C4CCN(C(=O)c5ccc(OC(F)(F)F)cc5N)CC4)ncnc3c2)CC1 [BAY-885]
inactive: [1] 100% | [2] 100% | [3] 100% | [4] 98% | [5] 100%

From ChEMBL document CHEMBL4507268 (2021)
